# Reference: ChEMBL document CHEMBL3804786, “Novel 1,3-thiazolidin-4-one derivatives as promising anti-Candida agents endowed with anti-oxidant and chelating properties” (Eur J Med Chem, 2016)
# Legend:
# Staphylococcus aureus = assay: Antibacterial activity against Staphylococcus aureus clinical isolate after 18 to 22 hrs by broth microdilution method; type: functional
# Staphylococcus warneri = assay: Antibacterial activity against Staphylococcus warneri clinical isolate after 18 to 22 hrs by broth microdilution method; type: functional
# Enterococcus faecalis = assay: Antibacterial activity against Streptococcus faecalis clinical isolate after 18 to 22 hrs by broth microdilution method; type: functional
# Escherichia coli = assay: Antibacterial activity against Escherichia coli after clinical isolate 18 to 22 hrs by broth microdilution method; type: functional
# Proteus mirabilis = assay: Antibacterial activity against Proteus mirabilis clinical isolate after 18 to 22 hrs by broth microdilution method; type: functional
# Enterobacter sp. = assay: Antibacterial activity against Enterobacter spp. clinical isolate after 18 to 22 hrs by broth microdilution method; type: functional
# Klebsiella oxytoca = assay: Antibacterial activity against Klebsiella oxytoca clinical isolate after 18 to 22 hrs by broth microdilution method; type: functional
# Candida albicans = assay: Antifungal activity against Candida albicans clinical isolate after 24 hrs by broth microdilution method; type: functional
# Nakaseomyces glabratus = assay: Antifungal activity against Candida glabrata clinical isolate after 24 hrs by broth microdilution method; type: functional
# Candida tropicalis = assay: Antifungal activity against Candida tropicalis clinical isolate after 24 hrs by broth microdilution method; type: functional
# Pichia kudriavzevii = assay: Antifungal activity against Candida krusei clinical isolate after 24 hrs by broth microdilution method; type: functional
# Candida parapsilosis = assay: Antifungal activity against Candida parapsilosis clinical isolate after 24 hrs by broth microdilution method; type: functional; settings: Lodderomyces parapsilosis
# [Candida] sake = Antifungal activity against Candida sake clinical isolate after 24 hrs by broth microdilution method; type: functional; settings: Fermentozyma sake
# [1] = tested on: Streptococcus sp. (viridans group); assay: Antibacterial activity against Streptococcus alpha-hemolyticus clinical isolate after 18 to 22 hrs by broth microdilution method
SMILES,MIC (Staphylococcus aureus),MIC (Staphylococcus warneri),MIC (Enterococcus faecalis),MIC (Escherichia coli),MIC (Proteus mirabilis),MIC (Enterobacter sp.),MIC (Klebsiella oxytoca),MIC (Candida albicans),MIC (Nakaseomyces glabratus),MIC (Candida tropicalis),MIC (Pichia kudriavzevii),MIC (Candida parapsilosis),MIC ([Candida] sake),MIC [1]
C/C(=N/N=C1\SCC(=O)N1Cc1ccc(N)cc1)c1ccccn1,> 256 µg/mL,> 256 µg/mL,> 256 µg/mL,> 256 µg/mL,> 256 µg/mL,> 256 µg/mL,> 256 µg/mL,2 µg/mL,8 µg/mL,2 µg/mL,8 µg/mL,8 µg/mL,2 µg/mL,> 256 µg/mL
CC(C)(O/N=C(\C(=O)N[C@@H]1C(=O)N2C(C(=O)[O-])=C(C[n+]3ccccc3)CS[C@H]12)c1csc(N)n1)C(=O)O [CEFTAZIDIME],2 µg/mL,4 µg/mL,4 µg/mL,4 µg/mL,8 µg/mL,8 µg/mL,8 µg/mL,–,–,–,–,–,–,4 µg/mL
C[C@@H]1[C@H](O)[C@@H](C)/C=C/C=C/C=C/C=C/C=C/C=C/C=C/[C@H](O[C@@H]2O[C@H](C)[C@@H](O)[C@H](N)[C@@H]2O)C[C@@H]2O[C@](O)(C[C@@H](O)C[C@@H](O)[C@H](O)CC[C@@H](O)C[C@@H](O)CC(=O)O[C@H]1C)C[C@H](O)[C@H]2C(=O)O [AMPHOTERICIN B],–,–,–,–,–,–,–,4 µg/mL,4 µg/mL,2 µg/mL,4 µg/mL,2 µg/mL,2 µg/mL,–
CC(=O)N1CCN(c2ccc(OCC3COC(Cn4ccnc4)(c4ccc(Cl)cc4Cl)O3)cc2)CC1 (centres undefined) [KETOCONAZOLE],–,–,–,–,–,–,–,2 µg/mL,2 µg/mL,2 µg/mL,4 µg/mL,2 µg/mL,4 µg/mL,–
CC(C)=N/N=C1\SCC(=O)N1Cc1cccc(Cl)c1,> 256 µg/mL,> 256 µg/mL,> 256 µg/mL,> 256 µg/mL,> 256 µg/mL,> 256 µg/mL,> 256 µg/mL,8 µg/mL,4 µg/mL,2 µg/mL,2 µg/mL,4 µg/mL,4 µg/mL,> 256 µg/mL
Clc1ccc(C(Cn2ccnc2)OCc2ccsc2Cl)c(Cl)c1 (centres undefined) [TIOCONAZOLE],–,–,–,–,–,–,–,8 µg/mL,4 µg/mL,8 µg/mL,8 µg/mL,8 µg/mL,4 µg/mL,–

# Now from value to molecule, other results behind:
MIC (Staphylococcus aureus),MIC (Staphylococcus warneri),MIC (Enterococcus faecalis),MIC (Escherichia coli),MIC (Proteus mirabilis),MIC (Enterobacter sp.),MIC (Klebsiella oxytoca),MIC (Candida albicans),MIC (Nakaseomyces glabratus),MIC (Candida tropicalis),MIC (Pichia kudriavzevii),MIC (Candida parapsilosis),MIC ([Candida] sake),SMILES,MIC [1]
> 256 µg/mL,> 256 µg/mL,> 256 µg/mL,> 256 µg/mL,> 256 µg/mL,> 256 µg/mL,> 256 µg/mL,2 µg/mL,16 µg/mL,32 µg/mL,16 µg/mL,64 µg/mL,256 µg/mL,Nc1ccc(CN2C(=O)CS/C2=N\N=C2CCCC2)cc1,> 256 µg/mL
> 256 µg/mL,> 256 µg/mL,> 256 µg/mL,> 256 µg/mL,> 256 µg/mL,> 256 µg/mL,> 256 µg/mL,8 µg/mL,2 µg/mL,4 µg/mL,8 µg/mL,4 µg/mL,8 µg/mL,CC(C)=N/N=C1\SCC(=O)N1Cc1ccccc1F,> 256 µg/mL
–,–,–,–,–,–,–,2 µg/mL,4 µg/mL,2 µg/mL,4 µg/mL,4 µg/mL,2 µg/mL,Clc1ccc(COC(Cn2ccnc2)c2ccc(Cl)cc2Cl)c(Cl)c1 (centres undefined) [MICONAZOLE],–
> 256 µg/mL,> 256 µg/mL,> 256 µg/mL,> 256 µg/mL,> 256 µg/mL,> 256 µg/mL,> 256 µg/mL,4 µg/mL,2 µg/mL,8 µg/mL,8 µg/mL,4 µg/mL,8 µg/mL,C/C(=N/N=C1\SCC(=O)N1Cc1ccc(Cl)cc1)c1cccs1,> 256 µg/mL
> 256 µg/mL,> 256 µg/mL,> 256 µg/mL,> 256 µg/mL,> 256 µg/mL,> 256 µg/mL,> 256 µg/mL,8 µg/mL,4 µg/mL,16 µg/mL,16 µg/mL,2 µg/mL,8 µg/mL,CC(C)=N/N=C1\SCC(=O)N1Cc1ccc(F)cc1,> 256 µg/mL
> 256 µg/mL,> 256 µg/mL,> 256 µg/mL,> 256 µg/mL,> 256 µg/mL,> 256 µg/mL,> 256 µg/mL,4 µg/mL,2 µg/mL,4 µg/mL,2 µg/mL,8 µg/mL,4 µg/mL,C/C(=N\N=C1/SCC(=O)N1Cc1cccc([N+](=O)[O-])c1)c1cccs1,> 256 µg/mL
> 256 µg/mL,> 256 µg/mL,> 256 µg/mL,> 256 µg/mL,> 256 µg/mL,> 256 µg/mL,> 256 µg/mL,4 µg/mL,4 µg/mL,2 µg/mL,8 µg/mL,8 µg/mL,8 µg/mL,C/C(=N\N=C1/SCC(=O)N1Cc1ccccc1Cl)c1cccs1,> 256 µg/mL
